# In patent US20110124614A1, “Methods And Compositions For The Treatment of Autoimmune Disorders” (priority 2008, published 2011):
# Marks after values point to notes of the source that are not given here.
# Legend:
# Format in all cases: in vivo, mouse
# [1] = tested on: EAE in wild-type B6 mice; assay: EAE clinical scoring, G-1 vs E2 pellets at different doses, wild-type B6 mice (Example III); conditions: for CDI / Daily / Mortality / Onset / Peak / Incidence: 34 days
# [2] = tested on: EAE in wild-type B6 mice; assay: EAE clinical scoring, daily s.c. injection of G-1 or E2, wild-type B6 mice
# [3] = tested on: EAE in PD-1KO mice; assay: EAE clinical scoring, G-1 or E2 pellets, PD-1KO mice (Example IX)
# [4] = tested on: CNS infiltration, demyelination and axonal damage in spinal cord of WT EAE mice; assay: Spinal cord histology (H&E, LFB-PAS, SMI312, SMI32), WT EAE mice
# Source text: Spinal cords were dissected out for histology. Intact spinal columns were removed and dissected after fixation in 4% paraformaldehyde, dehydrated and embedding in paraffin. To examine neuroinflammation, the sections were stained with hematoxylin and eosin (H&E). To examine demyelination, the sections were stained with Luxon fast blue plus periodic acid Schiff (LFB-PAS). The mice from the clinical experiment shown in FIG. 2A were euthanized at the end of the experiment and spinal cords were dissected out for histology. Intact spinal cords were removed and dissected after fixation in 4% paraformaldehyde, dehydrated and embedding in paraffin. To examine neuroinflammation, the sections were stained with hematoxylin and eosin (H&E). To examine demyelination, the sections were stained with Luxon fast blue plus periodic acid Schiff (LFB-PAS). To visualize axonal damage, spinal cords were fixed in 4% paraformaldehyde (maass/volume in PBS, pH 7.4) at 4° C. for at least 48 h. The spinal cords were dissected out from the columns, cut into sections 1-2 mm in length from the sampled thoracic or […] cords, dehydrated and embedded in paraffin blocks. Then, 10 μm thick sections were cut from paraffin blocks and mounted onto pre-cleaned microscope slides. The sections were dewaxed and rehydrated sequentially by xylene (2 min), gradient ethanol (100%, 95%, 85%, 2 min each) and PBS (5 min) and then cooked (120° C.) in antigen unmasking agent Trilogy® (Cell Marque, Hot Springs, Ark.) for 10 min in a pressure steamer. […] The slides were counterstained with hematoxylin for 30-60 s to visualize nuclei, washed with tap water, dehydrated, and mounted with Cytoseal™ XYL mounting medium (Richard-Allan Scientific, Kalamazoo, Mich.). The sections were analyzed by light microscopy after staining and recorded with a digital camera.
# [5] = tested on: splenocytes and lymph node cells of WT EAE mice; assay: Ex vivo T cell proliferation to mMOG-35-55, WT mice
# Procedure: (§1) Splenocytes and lymph node cells were harvested ex-vivo from G-1 and E2 implanted mice and cultured in a 96-well flat bottom tissue culture plate at 4×10^5 cells/well in stimulation medium in the presence of APC, irradiated (2500 rad) syngenic thymocytes at a ration of 1:10 (T:APCs) wither with or without mMog 35-55 peptide at varying concentrations. The cells were incubated for 3 days at 37° C. in 7% CO2 and pulsed with 0.5 μCi of [^3H] thymidine (Perkin-Elmer, Boston, Mass.) for the final 18 h of incubation. The cells were harvested onto glass fiber filters, and incorporated radioactivity was measured by a liquid scintillation counter. The cpm values (mean±SD) were calculated from triplicate wells. Stimulation index (SI) was calculated by dividing the experimental cpm by the control cpm.
# [6] = tested on: T cells of GPR30KO EAE mice; assay: Ex vivo T cell proliferation to mMOG-35-55, GPR30KO mice
# Procedure: as §1
# [7] = tested on: PD-1 expression in CD4^+FoxP3^+ T cells; assay: PD-1 expression in CD4+FoxP3+ Treg cells by flow cytometry, WT mice (Example VI); conditions: FIG. 5B
# Procedure: Splenocytes or lymph node cells were harvested from placebo-, E2- or G-1 treated mice after EAE induction as shown in FIG. 2A and stained for CD4, FoxP3 and PD-1. The expression levels of Pd-1 were analyzed by gating on CD4^+FoxP3^+ cells from placebo-, E2, or G-1 treated WT mice. For membrane staining, 1 million cells were stained at 4° C. in the dark with appropriate Ab dilutions in staining buffer (PBS containing 0.5% BSA and 0.02% sodium azide), Intracellular staining for FoxP3 was performed following the protocol recommended by eBioscience. Briefly, 4 million cells were surface stained following standard procedures. After washing, the cells were fixed overnight and washed twice with 0.5 ml of permeabilization buffer. The cells were co-stained for 15 min with FcBlock (Becton Dickinson, Franklin Lake., NJ) and IgG PerCp (eBioscience, San Diego, Calif.) followed 30 min later with fluorescent-labeled antibodies to FoxP3 (eBioscience, San Diego, Calif.) or isotype control. The cells were then washed twice with 2 ml of permeabilization buffer and once with 1 ml of staining buffer, and re-suspended in staining buffer. Flow cytometry data were collected on LSRII and FACSCalibur flow cytometers (BD Bioscience, Franklin Lakes, N.J.), and analyzed using FlowJo software (Tree Star, Ashland, Oreg.). Data represent 50,000-100,000 events unless otherwise noted. […] The histogram overlay compares the MFI of PD-1 in CD4^+FoxP3^+ T cells from different treatment groups. The bar charts show the average percentages of PD-1^+ CD4^+FoxP3^+ T cells and the average MFI of PD-1 in CD4^+FoxP3^+ T cells from all mice in each grip[/*P<0.05 or **P<0.01 compared to placebo control.
# [8] = tested on: PD-L1 and PD-L2 expression; assay: PD-L1 and PD-L2 expression on APCs and T cells by flow cytometry (Example VIII); conditions: treated WT EAE mice, FIG. 5C
# [9] = E2 injection, 1 μg/mouse/day s.c., 20 days
# [10] = PD-1KO, 2.5 mg/60 day E2 pellet, 20 days
structure (smiles),measurement,setting,value
"C[C@]12CC[C@@H]3c4ccc(O)cc4CC[C@H]3[C@@H]1CC[C@@H]2O [E2, 17β estradiol]",CDI,[1]; 0.025 mg E2 pellet,37.0 ± 21.6
same,Daily,[1]; 0.025 mg E2 pellet,1.7 ± 1.0
same,Mortality,[1]; 0.025 mg E2 pellet,0/5
same,Onset,[1]; 0.025 mg E2 pellet,14.8 ± 0.5
same,Peak,[1]; 0.025 mg E2 pellet,2.8 ± 1.6
same,Incidence,[1]; 0.025 mg/60 day release E2 pellet,4/5
same,CDI,[1]; 0.1 mg E2 pellet,9.1 ± 14.8
same,Daily,[1]; 0.1 mg E2 pellet,0.3 ± 0.6
same,Mortality,[1]; 0.1 mg E2 pellet,0/10
same,Onset,[1]; 0.1 mg E2 pellet,21.0 ± 6.1
same,Peak,[1]; 0.1 mg E2 pellet,0.8 ± 1.2
same,Incidence,[1]; 0.1 mg/60 day release E2 pellet,3/10**
same,CDI,[1]; 2.5 mg E2 pellet,0**
same,Daily,[1]; 2.5 mg E2 pellet,0**
same,Mortality,[1]; 2.5 mg E2 pellet,0/7
same,Peak,[1]; 2.5 mg E2 pellet,0**
same,Incidence,[1]; 2.5 mg/60 day release E2 pellet,0/7**
same,protection from clinical EAE (in words),[1]; 2.5 mg/60 day release E2 pellets,completely protected
same,protection against EAE (in words),[2]; E2 1 μg/mouse/day s.c. injections,partially protective
same,CDI,[2]; [9],10.5 ± 13.9
same,Daily,[2]; [9],2.3 ± 0.3
same,Incidence,[2]; [9],3/8*
same,Mortality,[2]; [9],1/8
same,Onset,[2]; [9],15.3 ± 1.5
same,Peak,[2]; [9],2.3 ± 2.9
same,protection against clinical EAE (in words),"[3]; E2 2.5 mg/60 day pellet, PD-1KO mice",retained partial efficacy
same,CDI,[3]; [10],16.4 ± 6.3
same,Daily,[3]; [10],1.5 ± 0.6
same,Mortality,[3]; [10],0/5
same,Onset,[3]; [10],16.4 ± 0.9
same,Peak,[3]; [10],4.1 ± 0.8
same,Incidence,"[3]; PD-1KO, 2.5 mg/60 day release E2 pellet, 20 days",5/5
same,pathological signs of EAE in CNS (immune cell infiltration and demyelination),"[4]; E2-treated WT mice, Example II, FIG. 1B",no pathological signs of EAE
same,"immune cell infiltration and demyelination in the CNS (H&E, LFB-PAS)","[4]; WT mice of FIG. 2A experiment, FIG. 4 upper panels",markedly ameliorated
same,axons in the spinal cords (SMI312 staining),"[4]; WT mice, FIG. 4 lower left panel",well preserved
same,axonal damage in spinal cord sections,"[4]; WT mice, FIG. 4 lower panels",reduced the level of axonal damage
same,SMI32 staining in white matter of spinal cords (ongoing axonal damage),"[4]; WT mice, FIG. 4 lower right panel",much less SMI32 staining
same,T-cell responses to MOG peptide,"[5]; E2 treatment, WT mice, FIG. 1C",similarly reduced
same,ex vivo T cell proliferation responses to mMog-35-55 peptide,"[5]; G-1 and E2 implanted WT mice, FIG. 2C",neither G-1 nor E2 treatment significantly altered
same,T-cell responses to MOG peptide,"[6]; E2 treatment, FIG. 1C",similarly reduced
same,T cell proliferation to mMog-35-55,[6]; Example IV,Neither G-1 nor E2 affected
same,staining intensity of PD-1 in CD4^+FoxP3^+ cells,[7]; spleen of treated WT mice,strongly enhanced
same,conversion of CD4^+FoxP3^+PD-1^− cells to PD-1^+ cells,[7]; treated WT mice,converted a majority
same,PD-L1 expression on B cells and macrophages,[8],upregulated
same,expression of PD-L2,[8],essentially no effect
